Data: article PMC5833849, “Sensitizing tumor cells to conventional drugs: HSP70 chaperone inhibitors, their selection and application in cancer models” (Cell Death & Disease, 2018)
Read-outs that look alike come from different tables or passages of the source. Blank lines part the entries; values can stand above or below the compound they belong to.

Columns and labels:
[1] = biological target: T1, Hsp70 (Homo sapiens, UniProt P0DMV8); test: inhibition of Hsp70 binding to carboxymethylated lactalbumin ([…] at […]); luciferase refolding ([…] at […]); format: biochemical
T1 construct: gene HSPA1A; Recombinant human Hsp70

[2] = biological target: T1, Hsp70; test: as above; format: biochemical; remark: listed apart in the source
[3] = biological target: T1, Hsp70; test: microscale thermophoresis (also DARTS; inhibition of substrate binding and luciferase refolding by Hsp70)

T1 sequence (P0DMV8 2-641): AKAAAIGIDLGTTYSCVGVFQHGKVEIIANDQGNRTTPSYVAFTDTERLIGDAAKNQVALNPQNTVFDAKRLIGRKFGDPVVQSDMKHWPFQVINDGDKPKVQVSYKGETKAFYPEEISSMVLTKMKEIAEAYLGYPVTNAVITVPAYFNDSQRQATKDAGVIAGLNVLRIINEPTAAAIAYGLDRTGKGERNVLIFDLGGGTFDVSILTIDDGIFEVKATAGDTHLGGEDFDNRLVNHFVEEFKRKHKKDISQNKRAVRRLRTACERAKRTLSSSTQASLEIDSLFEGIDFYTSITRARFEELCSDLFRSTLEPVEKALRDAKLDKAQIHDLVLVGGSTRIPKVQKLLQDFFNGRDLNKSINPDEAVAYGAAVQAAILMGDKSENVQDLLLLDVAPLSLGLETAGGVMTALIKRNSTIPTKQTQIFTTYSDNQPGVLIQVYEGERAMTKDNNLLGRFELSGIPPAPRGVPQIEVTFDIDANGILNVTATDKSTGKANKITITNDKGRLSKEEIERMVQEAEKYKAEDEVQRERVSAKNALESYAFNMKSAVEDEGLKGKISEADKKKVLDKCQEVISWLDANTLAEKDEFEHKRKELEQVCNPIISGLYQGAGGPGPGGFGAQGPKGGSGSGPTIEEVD

- inhibition at 1 µM [1]: 27%
Compound: CCn1c(=Cc2cccc[n+]2CC)sc(=C2Sc3ccccc3N2C)c1=O [MKT-077]

- inhibition at 1 µM [2]: 19%
Compound: N#Cc1ccc(COC[C@H]2O[C@@H](n3c(NCc4ccc(Cl)c(Cl)c4)nc4c(N)ncnc43)[C@H](O)[C@@H]2O)cc1 [VER-155008]

Compound: COc1cc2c(c(OC)c1OC)-c1ccc(NCCN)c(=O)cc1[C@@H](NC(C)=O)CC2 [AEAC]
- Kd [3]: 149 ± 49.6 nM
